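How tested: cells in 96-well plates exposed to compound for 48 hours at five concentrations. Abbreviation: GI50, concentration required for 50% inhibition of growth. TGI marks complete inhibition of growth.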
Tests used:
Assay in all cases: NCI anticancer screen, dose series, 48 h
OVCAR-8 ovarian = system: OVCAR-8 ovarian
SN12C renal = system: SN12C renal
HOP-62 NSCLC = system: HOP-62 NSCLC
DU-145 prostate = system: DU-145 prostate
MDA-MB-231 breast = system: MDA-MB-231 breast
HOP-92 NSCLC = system: HOP-92 NSCLC
LOX IMVI melanoma = system: LOX IMVI melanoma
K-562 leukemia = system: K-562 leukemia
HL-60(TB) leukemia = system: HL-60(TB) leukemia
UO-31 renal = system: UO-31 renal
HCT-15 colon = system: HCT-15 colon
CCRF-CEM leukemia = system: CCRF-CEM leukemia
RXF 393 renal = system: RXF 393 renal
BT-549 breast = system: BT-549 breast
M14 melanoma = system: M14 melanoma
SK-MEL-2 melanoma = system: SK-MEL-2 melanoma
UACC-62 melanoma = system: UACC-62 melanoma
SR leukemia = system: SR leukemia
RPMI-8226 leukemia = system: RPMI-8226 leukemia
OVCAR-3 ovarian = system: OVCAR-3 ovarian
COLO 205 colon = system: COLO 205 colon
HT29 colon = system: HT29 colon
MDA-MB-435 = system: MDA-MB-435
NCI-H226 lung = system: NCI-H226 lung
SF-295 CNS = system: SF-295 CNS
SNB-75 CNS = system: SNB-75 CNS
SK-MEL-28 melanoma = system: SK-MEL-28 melanoma
SK-OV-3 ovarian = system: SK-OV-3 ovarian
PC-3 prostate = system: PC-3 prostate
A498 renal = system: A498 renal
IGROV1 ovarian = system: IGROV1 ovarian
MALME-3M melanoma = system: MALME-3M melanoma
OVCAR-5 ovarian = system: OVCAR-5 ovarian
SW-620 colon = system: SW-620 colon
HCT-116 colon = system: HCT-116 colon
ACHN renal = system: ACHN renal
CAKI-1 renal = system: CAKI-1 renal
SK-MEL-5 melanoma = system: SK-MEL-5 melanoma
U251 CNS = system: U251 CNS
NCI-H522 lung = system: NCI-H522 lung
NCI-H23 lung = system: NCI-H23 lung
786-0 renal = system: 786-0 renal
MCF7 breast = system: MCF7 breast
SF-539 CNS = system: SF-539 CNS
HS 578T breast = system: HS 578T breast
TK-10 renal = system: TK-10 renal
SNB-19 CNS = system: SNB-19 CNS
MOLT-4 leukemia = system: MOLT-4 leukemia
HCC-2998 colon = system: HCC-2998 colon
UACC-257 melanoma = system: UACC-257 melanoma
NCI-H460 lung = system: NCI-H460 lung
OVCAR-4 ovarian = system: OVCAR-4 ovarian
A549 NSCLC = system: A549 NSCLC
NCI/ADR-RES ovarian = system: NCI/ADR-RES ovarian
KM12 colon = system: KM12 colon
T-47D breast = system: T-47D breast
SF-268 CNS = system: SF-268 CNS

**Q.** How did the GI50 (OVCAR-8 ovarian) turn out when `CC1=C(C)C(=O)O[C@@H]([C@](C)(O)[C@]2(O)CC[C@@]3(O)[C@@H]4C[C@H]5O[C@]56CC=CC(=O)[C@]6(C)[C@H]4CC[C@]23C)C1` was run?
**A.** 231 nM

**Q.** What about the TGI (OVCAR-8 ovarian) of the same molecule?
**A.** 4860 nM

**Q.** What about the GI50 (SN12C renal) of the same molecule?
**A.** 411 nM

**Q.** And the TGI (SN12C renal)?
**A.** 3630 nM

**Q.** What about the GI50 (HOP-62 NSCLC) of the same molecule?
**A.** 292 nM

**Q.** And the TGI (HOP-62 NSCLC)?
**A.** 3390 nM

**Q.** And the GI50 (DU-145 prostate)?
**A.** 519 nM

**Q.** And the TGI (DU-145 prostate)?
**A.** 10900 nM

**Q.** And the GI50 (MDA-MB-231 breast)?
**A.** 394 nM

**Q.** What about the TGI (MDA-MB-231 breast) of the same molecule?
**A.** 7660 nM

**Q.** And the GI50 (HOP-92 NSCLC)?
**A.** 65.1 nM

**Q.** What about the TGI (HOP-92 NSCLC) of the same molecule?
**A.** 1910 nM

**Q.** And the GI50 (LOX IMVI melanoma)?
**A.** 188 nM

**Q.** What about the TGI (LOX IMVI melanoma) of the same molecule?
**A.** 1380 nM

**Q.** What about the GI50 (K-562 leukemia) of the same molecule?
**A.** 90.7 nM

**Q.** What about the TGI (K-562 leukemia) of the same molecule?
**A.** > 27800 nM

**Q.** And the GI50 (HL-60(TB) leukemia)?
**A.** 41.2 nM

**Q.** And the TGI (HL-60(TB) leukemia)?
**A.** 1480 nM

**Q.** What about the GI50 (UO-31 renal) of the same molecule?
**A.** 95.7 nM

**Q.** And the TGI (UO-31 renal)?
**A.** 1460 nM

**Q.** And the GI50 (HCT-15 colon)?
**A.** 152 nM

**Q.** What about the TGI (HCT-15 colon) of the same molecule?
**A.** 1250 nM

**Q.** What about the GI50 (CCRF-CEM leukemia) of the same molecule?
**A.** 163 nM

**Q.** What about the GI50 (RXF 393 renal) of the same molecule?
**A.** 169 nM

**Q.** What about the TGI (RXF 393 renal) of the same molecule?
**A.** 620 nM

**Q.** What about the GI50 (BT-549 breast) of the same molecule?
**A.** 335 nM

**Q.** And the TGI (BT-549 breast)?
**A.** 1450 nM

**Q.** What about the GI50 (M14 melanoma) of the same molecule?
**A.** 101 nM

**Q.** What about the TGI (M14 melanoma) of the same molecule?
**A.** 1670 nM

**Q.** And the GI50 (SK-MEL-2 melanoma)?
**A.** 76.1 nM

**Q.** And the TGI (SK-MEL-2 melanoma)?
**A.** 481 nM

**Q.** What about the GI50 (UACC-62 melanoma) of the same molecule?
**A.** 99.6 nM

**Q.** What about the TGI (UACC-62 melanoma) of the same molecule?
**A.** 1570 nM

**Q.** And the GI50 (SR leukemia)?
**A.** 55.2 nM

**Q.** What about the TGI (SR leukemia) of the same molecule?
**A.** > 100000 nM

**Q.** And the GI50 (RPMI-8226 leukemia)?
**A.** 59.3 nM

**Q.** What about the TGI (RPMI-8226 leukemia) of the same molecule?
**A.** 1780 nM

**Q.** And the GI50 (OVCAR-3 ovarian)?
**A.** 66.7 nM

**Q.** What about the TGI (OVCAR-3 ovarian) of the same molecule?
**A.** 405 nM

**Q.** And the GI50 (COLO 205 colon)?
**A.** 39.8 nM

**Q.** What about the TGI (COLO 205 colon) of the same molecule?
**A.** 176 nM

**Q.** And the GI50 (HT29 colon)?
**A.** 66 nM

**Q.** What about the TGI (HT29 colon) of the same molecule?
**A.** 1470 nM

**Q.** And the GI50 (MDA-MB-435)?
**A.** 54.1 nM

**Q.** What about the TGI (MDA-MB-435) of the same molecule?
**A.** 1080 nM

**Q.** What about the GI50 (NCI-H226 lung) of the same molecule?
**A.** 453 nM

**Q.** What about the TGI (NCI-H226 lung) of the same molecule?
**A.** 4490 nM

**Q.** What about the GI50 (SF-295 CNS) of the same molecule?
**A.** 620 nM

**Q.** What about the TGI (SF-295 CNS) of the same molecule?
**A.** 14700 nM

**Q.** What about the GI50 (SNB-75 CNS) of the same molecule?
**A.** 32.2 nM

**Q.** And the TGI (SNB-75 CNS)?
**A.** 1200 nM

**Q.** And the GI50 (SK-MEL-28 melanoma)?
**A.** 233 nM

**Q.** What about the TGI (SK-MEL-28 melanoma) of the same molecule?
**A.** 1920 nM

**Q.** And the GI50 (SK-OV-3 ovarian)?
**A.** 909 nM

**Q.** And the TGI (SK-OV-3 ovarian)?
**A.** 18800 nM

**Q.** What about the GI50 (PC-3 prostate) of the same molecule?
**A.** 247 nM

**Q.** And the TGI (PC-3 prostate)?
**A.** 5970 nM

**Q.** What about the GI50 (A498 renal) of the same molecule?
**A.** 218 nM

**Q.** What about the TGI (A498 renal) of the same molecule?
**A.** 784 nM

**Q.** What about the GI50 (IGROV1 ovarian) of the same molecule?
**A.** 283 nM

**Q.** And the TGI (IGROV1 ovarian)?
**A.** 2590 nM

**Q.** And the GI50 (MALME-3M melanoma)?
**A.** 382 nM

**Q.** What about the TGI (MALME-3M melanoma) of the same molecule?
**A.** 3400 nM

**Q.** What about the GI50 (OVCAR-5 ovarian) of the same molecule?
**A.** 299 nM

**Q.** What about the TGI (OVCAR-5 ovarian) of the same molecule?
**A.** 2510 nM

**Q.** What about the GI50 (SW-620 colon) of the same molecule?
**A.** 98.9 nM

**Q.** What about the TGI (SW-620 colon) of the same molecule?
**A.** 1100 nM

**Q.** What about the GI50 (HCT-116 colon) of the same molecule?
**A.** 113 nM

**Q.** And the TGI (HCT-116 colon)?
**A.** 1090 nM

**Q.** What about the GI50 (ACHN renal) of the same molecule?
**A.** 290 nM

**Q.** What about the TGI (ACHN renal) of the same molecule?
**A.** 1450 nM

**Q.** And the GI50 (CAKI-1 renal)?
**A.** 180 nM

**Q.** What about the TGI (CAKI-1 renal) of the same molecule?
**A.** 2110 nM

**Q.** And the GI50 (SK-MEL-5 melanoma)?
**A.** 269 nM

**Q.** And the TGI (SK-MEL-5 melanoma)?
**A.** 1430 nM

**Q.** And the GI50 (U251 CNS)?
**A.** 483 nM

**Q.** And the TGI (U251 CNS)?
**A.** 2230 nM

**Q.** And the GI50 (NCI-H522 lung)?
**A.** 100 nM

**Q.** What about the TGI (NCI-H522 lung) of the same molecule?
**A.** 534 nM

**Q.** What about the GI50 (NCI-H23 lung) of the same molecule?
**A.** 254 nM

**Q.** And the TGI (NCI-H23 lung)?
**A.** 2930 nM

**Q.** What about the GI50 (786-0 renal) of the same molecule?
**A.** 284 nM

**Q.** What about the TGI (786-0 renal) of the same molecule?
**A.** 1960 nM

**Q.** What about the GI50 (MCF7 breast) of the same molecule?
**A.** 66.8 nM

**Q.** And the TGI (MCF7 breast)?
**A.** 2800 nM

**Q.** What about the GI50 (SF-539 CNS) of the same molecule?
**A.** 272 nM

**Q.** What about the TGI (SF-539 CNS) of the same molecule?
**A.** 1620 nM

**Q.** And the GI50 (HS 578T breast)?
**A.** 127 nM

**Q.** What about the TGI (HS 578T breast) of the same molecule?
**A.** 2330 nM

**Q.** And the GI50 (TK-10 renal)?
**A.** 48.2 nM

**Q.** And the TGI (TK-10 renal)?
**A.** 995 nM

**Q.** What about the GI50 (SNB-19 CNS) of the same molecule?
**A.** 395 nM

**Q.** And the TGI (SNB-19 CNS)?
**A.** 13700 nM

**Q.** And the GI50 (MOLT-4 leukemia)?
**A.** 78.6 nM

**Q.** What about the TGI (MOLT-4 leukemia) of the same molecule?
**A.** 35200 nM

**Q.** What about the GI50 (HCC-2998 colon) of the same molecule?
**A.** 772 nM

**Q.** And the TGI (HCC-2998 colon)?
**A.** 2170 nM

**Q.** What about the GI50 (UACC-257 melanoma) of the same molecule?
**A.** 172 nM

**Q.** What about the TGI (UACC-257 melanoma) of the same molecule?
**A.** 2330 nM

**Q.** What about the GI50 (NCI-H460 lung) of the same molecule?
**A.** 618 nM

**Q.** What about the TGI (NCI-H460 lung) of the same molecule?
**A.** 2400 nM

**Q.** And the GI50 (OVCAR-4 ovarian)?
**A.** 121 nM

**Q.** And the TGI (OVCAR-4 ovarian)?
**A.** 15800 nM

**Q.** And the GI50 (A549 NSCLC)?
**A.** 568 nM

**Q.** And the TGI (A549 NSCLC)?
**A.** 5930 nM

**Q.** And the GI50 (NCI/ADR-RES ovarian)?
**A.** 2760 nM

**Q.** And the TGI (NCI/ADR-RES ovarian)?
**A.** > 63800 nM

**Q.** And the GI50 (KM12 colon)?
**A.** 266 nM

**Q.** And the TGI (KM12 colon)?
**A.** 1570 nM

**Q.** And the GI50 (T-47D breast)?
**A.** 111 nM

**Q.** What about the TGI (T-47D breast) of the same molecule?
**A.** 1630 nM

**Q.** What about the GI50 (SF-268 CNS) of the same molecule?
**A.** 424 nM

**Q.** What about the TGI (SF-268 CNS) of the same molecule?
**A.** 2350 nM

— PubChem BioAssay (NCI)
